One block for each compound: values may come before it. The source made the active and inactive calls. The rule behind the calls is not given here.
Tests used:
[1] = target: T1, Phosphatidylinositol 3-kinase (Mus musculus) (UniProt P26450+P42337); assay: Inhibition of PI3K in mouse B16 cells assessed as reduction in phosphorylation of AKT at T308 residue at 10 to 15 uM incubated for 24 hrs by Western blot analysis; type: cell-based; conditions: dose 10-15 µM
[2] = target: T1, Phosphatidylinositol 3-kinase (Mus musculus); assay: Inhibition of PI3K in mouse B16 cells assessed as reduction in phosphorylation of AKT at […] residue at 10 to 15 uM incubated for 24 hrs by Western blot analysis; type: cell-based; conditions: dose 10-15 µM
[3] = target: T1, Phosphatidylinositol 3-kinase (Mus musculus); assay: Inhibition of PI3K in mouse B16 cells assessed as reduction in MCL-1 protein expression at 10 to 15 uM incubated for 24 hrs by Western blot analysis; type: cell-based; conditions: dose 10-15 µM
[4] = Retention time of the compound under 365 nm UV light irradiation by HPLC analysis; type: physicochemical
[5] = target: T1, Phosphatidylinositol 3-kinase (Mus musculus); assay: Inhibition of PI3K in mouse B16 cells assessed as reduction in phosphorylation of AKT at […] residue incubated for 24 hrs by Western blot analysis; type: cell-based; conditions: dose 10-15 µM
[6] = target: T1, Phosphatidylinositol 3-kinase (Mus musculus); assay: Inhibition of PI3K in mouse B16 cells assessed as reduction in MCL-1 protein expression incubated for 24 hrs by Western blot analysis; type: cell-based; conditions: dose 10-15 µM
B16 [7] = assay: Induction of apoptosis in mouse B16 cells assessed as increase in apoptotic cells at 10 uM incubated for 48 hrs by annexin-V/propidium iodide staining based flow cytometry analysis; type: functional
[8] = target: T1, Phosphatidylinositol 3-kinase (Mus musculus); assay: Inhibition of PI3K in mouse B16 cells assessed as reduction in phosphorylation of AKT at […] residue at 10 to 15 uM incubated for 24 hrs irradiated with 365 nm uv light for 4 min by Western blot analysis; type: cell-based; conditions: dose 10-15 µM
B16 [9] = assay: Induction of apoptosis in mouse B16 cells assessed as necrotic cells at 10 uM incubated for 48 hrs irradiated with 365 nm for 4 mins by annexin-V/propidium iodide staining based flow cytometry analysis (reference value: 0.07 %); type: functional
B16 [10] = assay: Induction of cell cycle arrest in mouse B16 cells assessed as cells accumulation at G2/M phase at 10 to 15 uM incubated for 24 hrs irradiated with 365 nm for 4 mins by flow cytometry analysis; type: functional, cell-based; conditions: dose 10-15 µM
[11] = target: T2, Phosphatidylinositol 4,5-bisphosphate 3-kinase catalytic subunit delta isoform (Homo sapiens, UniProt O00329); assay: Inhibition of PI3Kdelta (unknown origin)
T2 sequence (O00329 whole entry): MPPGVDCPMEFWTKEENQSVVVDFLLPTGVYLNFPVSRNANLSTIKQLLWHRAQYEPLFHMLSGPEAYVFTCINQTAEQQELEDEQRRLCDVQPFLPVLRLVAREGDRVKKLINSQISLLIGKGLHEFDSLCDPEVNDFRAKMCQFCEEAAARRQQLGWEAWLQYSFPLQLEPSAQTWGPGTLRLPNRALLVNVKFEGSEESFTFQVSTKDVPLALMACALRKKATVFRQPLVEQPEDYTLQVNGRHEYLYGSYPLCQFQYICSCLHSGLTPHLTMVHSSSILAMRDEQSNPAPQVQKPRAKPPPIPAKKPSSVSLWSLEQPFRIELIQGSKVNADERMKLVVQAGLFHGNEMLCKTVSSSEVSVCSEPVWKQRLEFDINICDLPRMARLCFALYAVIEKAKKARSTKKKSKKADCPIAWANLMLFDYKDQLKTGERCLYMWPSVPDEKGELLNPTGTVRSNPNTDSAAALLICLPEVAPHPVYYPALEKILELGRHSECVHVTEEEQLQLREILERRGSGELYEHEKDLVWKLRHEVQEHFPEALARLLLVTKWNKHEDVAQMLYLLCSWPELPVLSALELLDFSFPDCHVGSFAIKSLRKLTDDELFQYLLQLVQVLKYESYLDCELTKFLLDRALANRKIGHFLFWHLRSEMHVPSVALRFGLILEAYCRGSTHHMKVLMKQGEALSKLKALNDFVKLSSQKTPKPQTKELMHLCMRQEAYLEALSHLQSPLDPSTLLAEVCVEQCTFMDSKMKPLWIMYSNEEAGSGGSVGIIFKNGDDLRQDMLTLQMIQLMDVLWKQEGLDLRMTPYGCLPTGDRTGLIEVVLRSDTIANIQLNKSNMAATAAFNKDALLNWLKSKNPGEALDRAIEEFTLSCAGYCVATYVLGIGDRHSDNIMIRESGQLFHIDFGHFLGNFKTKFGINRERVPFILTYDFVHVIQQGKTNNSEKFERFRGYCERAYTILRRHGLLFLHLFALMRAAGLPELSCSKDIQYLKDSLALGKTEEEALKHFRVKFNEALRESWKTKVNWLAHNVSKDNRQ

B16 [12] = assay: Induction of apoptosis in mouse B16 cells assessed as early apoptotic cells at 15 uM incubated for 48 hrs irradiated with 365 nm for 4 mins by annexin-V/propidium iodide staining based flow cytometry analysis (reference value: 2.38 %); type: functional
[13] = target: Phosphatidylinositol 4,5-bisphosphate 3-kinase catalytic subunit alpha isoform (Homo sapiens, UniProt P42336); assay: Inhibition of PI3Kalpha (unknown origin)
Phosphatidylinositol 4,5-bisphosphate 3-kinase catalytic subunit alpha isoform, sequence (P42336 whole entry, canonical isoform): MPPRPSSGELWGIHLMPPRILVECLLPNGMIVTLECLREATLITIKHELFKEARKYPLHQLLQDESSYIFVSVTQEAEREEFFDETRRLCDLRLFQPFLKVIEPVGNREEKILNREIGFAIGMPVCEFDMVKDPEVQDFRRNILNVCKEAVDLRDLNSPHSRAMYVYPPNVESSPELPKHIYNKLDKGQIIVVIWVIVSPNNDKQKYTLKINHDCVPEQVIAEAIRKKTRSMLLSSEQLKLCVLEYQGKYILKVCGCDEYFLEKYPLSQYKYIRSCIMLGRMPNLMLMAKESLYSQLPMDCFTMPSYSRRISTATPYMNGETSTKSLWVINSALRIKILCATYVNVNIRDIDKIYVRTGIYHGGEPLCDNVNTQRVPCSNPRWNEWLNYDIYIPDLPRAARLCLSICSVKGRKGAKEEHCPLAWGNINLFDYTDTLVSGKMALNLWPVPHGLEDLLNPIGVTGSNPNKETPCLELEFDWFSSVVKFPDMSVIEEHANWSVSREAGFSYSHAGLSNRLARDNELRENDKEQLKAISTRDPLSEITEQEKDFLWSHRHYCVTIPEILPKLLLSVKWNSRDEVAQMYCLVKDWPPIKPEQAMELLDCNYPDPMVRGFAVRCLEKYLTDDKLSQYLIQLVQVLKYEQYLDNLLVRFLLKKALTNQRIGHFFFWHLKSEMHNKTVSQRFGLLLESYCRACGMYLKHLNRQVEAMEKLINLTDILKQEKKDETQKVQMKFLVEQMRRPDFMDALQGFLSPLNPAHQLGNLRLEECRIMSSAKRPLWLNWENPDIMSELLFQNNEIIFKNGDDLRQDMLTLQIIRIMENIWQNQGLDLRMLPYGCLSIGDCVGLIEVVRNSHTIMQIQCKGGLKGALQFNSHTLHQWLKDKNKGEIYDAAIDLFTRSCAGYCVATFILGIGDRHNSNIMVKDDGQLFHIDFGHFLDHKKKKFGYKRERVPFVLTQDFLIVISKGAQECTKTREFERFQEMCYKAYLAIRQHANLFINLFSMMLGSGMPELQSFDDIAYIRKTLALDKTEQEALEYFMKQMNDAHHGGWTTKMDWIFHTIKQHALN

B16 [14] = assay: Induction of apoptosis in mouse B16 cells assessed as viable at 15 uM incubated for 48 hrs by annexin-V/propidium iodide staining based flow cytometry analysis (reference value: 97.4 %); type: functional
B16 [15] = assay: Induction of apoptosis is in mouse B16 cells assessed as necrotic cells at 15 uM incubated for 48 hrs by annexin-V/propidium iodide staining based flow cytometry analysis (reference value: 0.01 %); type: functional
[16] = target: T1, Phosphatidylinositol 3-kinase (Mus musculus); assay: Inhibition of PI3K in mouse B16 cells assessed as reduction in phosphorylation of AKT at T308 residue incubated for 24 hrs by Western blot analysis; type: cell-based; conditions: dose 10-15 µM
B16 [17] = assay: Antiproliferative activity against mouse B16 cells assessed as reduction in cell viability incubated for 48 hrs irradiated with 365 nm uv light for 4 min by CCK-8 assay; type: functional, cell-based; conditions: B16, light or radiation study
[18] = target: Phosphatidylinositol 4,5-bisphosphate 3-kinase catalytic subunit beta isoform (Homo sapiens, UniProt P42338); assay: Inhibition of PI3Kbeta (unknown origin)
Phosphatidylinositol 4,5-bisphosphate 3-kinase catalytic subunit beta isoform, sequence (P42338 whole entry, canonical isoform): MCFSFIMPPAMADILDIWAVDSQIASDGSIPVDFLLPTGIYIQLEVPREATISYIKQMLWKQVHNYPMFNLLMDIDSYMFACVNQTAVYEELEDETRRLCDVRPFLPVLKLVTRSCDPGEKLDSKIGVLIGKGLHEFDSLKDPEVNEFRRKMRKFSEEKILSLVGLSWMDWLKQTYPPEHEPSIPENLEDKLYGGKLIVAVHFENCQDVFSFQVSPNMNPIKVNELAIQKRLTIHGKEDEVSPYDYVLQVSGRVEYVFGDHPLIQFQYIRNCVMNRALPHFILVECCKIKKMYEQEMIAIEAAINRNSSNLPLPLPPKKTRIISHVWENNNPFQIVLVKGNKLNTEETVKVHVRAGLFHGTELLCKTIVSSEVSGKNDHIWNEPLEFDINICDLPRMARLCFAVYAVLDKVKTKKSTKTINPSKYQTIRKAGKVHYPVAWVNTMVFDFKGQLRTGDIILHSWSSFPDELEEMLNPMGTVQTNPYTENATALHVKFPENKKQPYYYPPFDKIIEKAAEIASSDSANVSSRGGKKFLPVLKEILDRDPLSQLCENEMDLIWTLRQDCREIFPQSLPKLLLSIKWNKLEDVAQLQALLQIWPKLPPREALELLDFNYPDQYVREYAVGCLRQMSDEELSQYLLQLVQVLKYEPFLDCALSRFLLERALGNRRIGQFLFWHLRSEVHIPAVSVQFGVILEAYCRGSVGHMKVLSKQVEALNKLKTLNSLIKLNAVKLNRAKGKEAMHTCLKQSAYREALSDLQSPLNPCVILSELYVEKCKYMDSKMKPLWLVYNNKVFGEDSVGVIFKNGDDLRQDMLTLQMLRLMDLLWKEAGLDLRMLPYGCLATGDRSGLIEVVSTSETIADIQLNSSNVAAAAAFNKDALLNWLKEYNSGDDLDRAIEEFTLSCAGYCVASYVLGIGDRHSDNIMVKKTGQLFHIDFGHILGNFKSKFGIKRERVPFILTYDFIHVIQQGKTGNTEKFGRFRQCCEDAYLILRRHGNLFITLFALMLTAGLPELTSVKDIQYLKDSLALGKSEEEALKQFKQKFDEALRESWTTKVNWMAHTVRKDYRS

B16 [19] = assay: Induction of apoptosis in mouse B16 cells assessed as late apoptotic cells at 10 uM incubated for 48 hrs irradiated with 365 nm for 4 mins by annexin-V/propidium iodide staining based flow cytometry analysis (reference value: 0.84 %); type: functional
B16 [20] = assay: Induction of apoptosis in mouse B16 cells assessed as viable at 10 uM incubated for 48 hrs by annexin-V/propidium iodide staining based flow cytometry analysis (reference value: 97.4 %); type: functional
B16 [21] = assay: Induction of apoptosis in mouse B16 cells assessed as early apoptotic cells at 10 uM incubated for 48 hrs by annexin-V/propidium iodide staining based flow cytometry analysis (reference value: 1.39 %); type: functional
B16 [22] = assay: Induction of apoptosis in mouse B16 cells assessed as necrotic cells at 15 uM incubated for 48 hrs irradiated with 365 nm for 4 mins by annexin-V/propidium iodide staining based flow cytometry analysis (reference value: 0.07 %); type: functional
B16 [23] = assay: Induction of apoptosis in mouse B16 cells assessed as viable cells at 15 uM incubated for 48 hrs irradiated with 365 nm for 4 mins by annexin-V/propidium iodide staining based flow cytometry analysis (reference value: 96.7 %); type: functional; conditions: B16, light or radiation study, read-out: Activity
B16 [24] = assay: Induction of apoptosis is in mouse B16 cells assessed as late apoptotic cells at 15 uM incubated for 48 hrs by annexin-V/propidium iodide staining based flow cytometry analysis (reference value: 1.15 %); type: functional
B16 [25] = assay: Induction of apoptosis in mouse B16 cells assessed as early apoptotic cells at 10 uM incubated for 48 hrs irradiated with 365 nm for 4 mins by annexin-V/propidium iodide staining based flow cytometry analysis (reference value: 2.38 %); type: functional
[26] = target: T1, Phosphatidylinositol 3-kinase (Mus musculus); assay: Inhibition of PI3K in mouse B16 cells assessed as reduction in phosphorylation of AKT at T308 residue at 10 to 15 uM incubated for 24 hrs irradiated with 365 nm uv light for 4 min by Western blot analysis; type: cell-based; conditions: dose 10-15 µM
B16 [27] = assay: Induction of cell cycle arrest in mouse B16 cells assessed as cells accumulation at G2/M phase at 10 to 15 uM incubated for 24 hrs by flow cytometry analysis; type: functional, cell-based; conditions: dose 10-15 µM
B16 [28] = assay: Induction of apoptosis in mouse B16 cells assessed as early apoptotic cells at 15 uM incubated for 48 hrs by annexin-V/propidium iodide staining based flow cytometry analysis (reference value: 1.39 %); type: functional
B16 [29] = assay: Induction of apoptosis in mouse B16 cells assessed as viable cells at 10 uM incubated for 48 hrs irradiated with 365 nm for 4 mins by annexin-V/propidium iodide staining based flow cytometry analysis (reference value: 96.7 %); type: functional; conditions: B16, light or radiation study, read-out: Activity
[30] = target: T1, Phosphatidylinositol 3-kinase (Mus musculus); assay: Inhibition of PI3K in mouse B16 cells assessed as reduction in MCL-1 protein expression at 10 to 15 uM incubated for 24 hrs irradiated with 365 nm uv light for 4 min by Western blot analysis; type: cell-based; conditions: dose 10-15 µM
[31] = target: Phosphatidylinositol 4,5-bisphosphate 3-kinase catalytic subunit gamma isoform (Homo sapiens, UniProt P48736); assay: Inhibition of PI3Kgamma (unknown origin)
Phosphatidylinositol 4,5-bisphosphate 3-kinase catalytic subunit gamma isoform, sequence (P48736 whole entry, canonical isoform): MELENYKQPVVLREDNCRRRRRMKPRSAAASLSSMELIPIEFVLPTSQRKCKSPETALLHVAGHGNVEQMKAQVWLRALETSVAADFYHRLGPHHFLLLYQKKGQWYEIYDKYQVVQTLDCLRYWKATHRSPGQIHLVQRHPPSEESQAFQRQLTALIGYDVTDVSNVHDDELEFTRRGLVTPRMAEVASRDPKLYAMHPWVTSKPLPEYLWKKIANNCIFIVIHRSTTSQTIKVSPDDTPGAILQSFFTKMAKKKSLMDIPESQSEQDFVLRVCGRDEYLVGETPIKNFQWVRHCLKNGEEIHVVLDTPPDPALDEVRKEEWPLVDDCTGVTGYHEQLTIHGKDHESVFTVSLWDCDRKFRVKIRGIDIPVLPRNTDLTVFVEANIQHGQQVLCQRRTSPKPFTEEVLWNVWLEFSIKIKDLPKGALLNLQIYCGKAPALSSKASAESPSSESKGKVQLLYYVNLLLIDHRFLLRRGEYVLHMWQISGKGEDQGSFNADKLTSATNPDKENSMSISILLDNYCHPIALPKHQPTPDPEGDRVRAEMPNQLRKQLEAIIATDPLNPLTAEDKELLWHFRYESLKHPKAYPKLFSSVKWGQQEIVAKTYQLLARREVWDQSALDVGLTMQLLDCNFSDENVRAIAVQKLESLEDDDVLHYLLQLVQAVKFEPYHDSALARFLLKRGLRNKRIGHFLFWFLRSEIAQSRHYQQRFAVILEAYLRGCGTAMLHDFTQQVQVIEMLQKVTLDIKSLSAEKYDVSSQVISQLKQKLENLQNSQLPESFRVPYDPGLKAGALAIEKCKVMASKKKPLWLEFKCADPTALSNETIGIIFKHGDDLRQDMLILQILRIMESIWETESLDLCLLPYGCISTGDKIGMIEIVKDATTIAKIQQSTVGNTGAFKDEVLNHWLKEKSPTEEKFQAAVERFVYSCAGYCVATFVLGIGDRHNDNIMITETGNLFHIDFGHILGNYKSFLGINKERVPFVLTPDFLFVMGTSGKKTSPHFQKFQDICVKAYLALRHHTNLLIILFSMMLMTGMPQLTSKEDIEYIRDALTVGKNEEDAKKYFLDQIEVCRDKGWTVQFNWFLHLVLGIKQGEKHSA

B16 [32] = assay: Induction of apoptosis is in mouse B16 cells assessed as necrotic cells at 10 uM incubated for 48 hrs by annexin-V/propidium iodide staining based flow cytometry analysis (reference value: 0.01 %); type: functional
[33] = Photorelease activity in PBS assessed as N-(2-chloro-5-(1H-pyrazolo[3,4-b]pyridin-5-yl)pyridin-3-yl) benzene sulfonamide release irradiated with 254 nm incubated for 12 mins by HPLC analysis
B16 [34] = assay: Induction of apoptosis in mouse B16 cells assessed as late apoptotic cells at 15 uM incubated for 48 hrs irradiated with 365 nm for 4 mins by annexin-V/propidium iodide staining based flow cytometry analysis (reference value: 0.84 %); type: functional
B16 [35] = assay: Induction of apoptosis is in mouse B16 cells assessed as late apoptotic cells at 10 uM incubated for 48 hrs by annexin-V/propidium iodide staining based flow cytometry analysis (reference value: 1.15 %); type: functional

T1 sequence (P26450 whole entry, looked up): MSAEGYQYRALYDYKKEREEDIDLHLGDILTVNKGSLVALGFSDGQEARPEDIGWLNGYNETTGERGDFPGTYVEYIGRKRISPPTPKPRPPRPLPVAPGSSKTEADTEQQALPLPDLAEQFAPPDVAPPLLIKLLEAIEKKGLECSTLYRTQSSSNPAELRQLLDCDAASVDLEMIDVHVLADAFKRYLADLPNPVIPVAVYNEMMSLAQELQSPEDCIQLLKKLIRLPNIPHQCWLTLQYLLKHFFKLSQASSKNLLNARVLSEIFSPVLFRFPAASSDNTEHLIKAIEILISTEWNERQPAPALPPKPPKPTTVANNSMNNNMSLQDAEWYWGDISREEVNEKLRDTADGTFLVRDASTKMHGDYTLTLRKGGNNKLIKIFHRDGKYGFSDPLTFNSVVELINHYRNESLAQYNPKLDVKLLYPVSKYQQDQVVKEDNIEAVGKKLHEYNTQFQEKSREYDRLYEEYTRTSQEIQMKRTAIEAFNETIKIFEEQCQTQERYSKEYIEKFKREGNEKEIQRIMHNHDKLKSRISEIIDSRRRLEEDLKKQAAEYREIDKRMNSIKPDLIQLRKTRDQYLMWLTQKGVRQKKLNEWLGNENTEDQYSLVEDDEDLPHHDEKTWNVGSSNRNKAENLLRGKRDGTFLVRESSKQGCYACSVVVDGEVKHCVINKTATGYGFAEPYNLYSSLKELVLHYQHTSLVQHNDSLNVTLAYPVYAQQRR
T1 sequence (P42337 whole entry, looked up): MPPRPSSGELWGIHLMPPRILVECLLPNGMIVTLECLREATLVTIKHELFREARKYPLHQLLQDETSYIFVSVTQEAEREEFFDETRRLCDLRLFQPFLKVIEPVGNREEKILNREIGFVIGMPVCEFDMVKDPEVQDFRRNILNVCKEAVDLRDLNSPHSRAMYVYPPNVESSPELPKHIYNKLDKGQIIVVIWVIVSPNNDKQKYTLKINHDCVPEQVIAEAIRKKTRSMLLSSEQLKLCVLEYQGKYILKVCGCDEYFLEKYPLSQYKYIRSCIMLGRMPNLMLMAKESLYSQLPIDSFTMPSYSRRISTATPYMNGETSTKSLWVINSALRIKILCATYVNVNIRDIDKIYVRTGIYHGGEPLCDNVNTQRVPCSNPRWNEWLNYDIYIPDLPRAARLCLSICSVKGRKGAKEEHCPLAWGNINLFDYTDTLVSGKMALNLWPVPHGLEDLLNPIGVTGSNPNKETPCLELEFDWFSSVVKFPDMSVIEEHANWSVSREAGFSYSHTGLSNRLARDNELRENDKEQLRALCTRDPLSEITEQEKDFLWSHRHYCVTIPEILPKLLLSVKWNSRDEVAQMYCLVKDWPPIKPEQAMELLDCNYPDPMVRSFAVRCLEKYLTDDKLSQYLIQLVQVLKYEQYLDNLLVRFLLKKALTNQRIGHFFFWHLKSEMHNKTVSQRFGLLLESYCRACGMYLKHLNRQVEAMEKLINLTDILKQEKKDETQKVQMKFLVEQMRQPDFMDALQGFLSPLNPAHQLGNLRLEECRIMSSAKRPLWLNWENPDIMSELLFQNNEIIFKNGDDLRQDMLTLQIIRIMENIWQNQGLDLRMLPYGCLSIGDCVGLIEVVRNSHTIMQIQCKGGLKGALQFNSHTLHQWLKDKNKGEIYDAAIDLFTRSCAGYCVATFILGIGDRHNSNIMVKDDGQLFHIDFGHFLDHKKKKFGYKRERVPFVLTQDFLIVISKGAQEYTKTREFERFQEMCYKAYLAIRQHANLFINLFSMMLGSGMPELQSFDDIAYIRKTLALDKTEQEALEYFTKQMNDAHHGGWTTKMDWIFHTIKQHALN

inhibition [1]: Active
inhibition [2]: Active
inhibition [3]: Active
Retention_time [4]: 7.9 min
SMILES: O=S(=O)(Nc1cc(-c2cnc3[nH]ncc3c2)cnc1Cl)c1ccccc1

inhibition [5]: Dose-Dependent Effect
inhibition [6]: Dose-Dependent Effect
inhibition [8]: Active
IC50 [11]: 14 nM
IC50 [13]: 43 nM
inhibition [16]: Dose-Dependent Effect
IC50 (B16 [17]): 8800 nM
IC50 [18]: 83 nM
inhibition [26]: Active
inhibition [30]: Active
IC50 [31]: 84 nM
Retention_time [4]: 10.4 min
SMILES: COc1cc(COC(=O)n2ncc3cc(-c4cnc(Cl)c(NS(=O)(=O)c5ccccc5)c4)cnc32)c([N+](=O)[O-])cc1OC
Activity (B16 [7]): <10%
Activity (B16 [9]): 0%
Activity (B16 [10]): Active
Activity (B16 [12]): 14.4%
Activity (B16 [14]): 88.1%
Activity (B16 [15]): 1.3%
Activity (B16 [19]): 3.49%
Activity (B16 [20]): 95.6%
Activity (B16 [21]): 3.16%
Activity (B16 [22]): 1.27%
viability at 15 µM (B16 [23]): 69.6%
Activity (B16 [24]): 3.42%
Activity (B16 [25]): 8.04%
Activity (B16 [27]): Active
Activity (B16 [28]): 7.13%
viability at 10 µM (B16 [29]): 88.5%
Activity (B16 [32]): 0%
Drug metabolism [33]: > 98%
Activity (B16 [34]): 14.7%
Activity (B16 [35]): 1.25%
